Measured values: patent US20250312462A1, “PAK1 DEGRADERS AND METHODS OF USE THEREOF” (INSTITUTE FOR CANCER RESEARCH D/B/A THE RESEARCH INSTITUTE …, priority 2022, published 2025)

Tests used:
[1] = target: FLT3(R834Q) (Homo sapiens, UniProt P36888, R834Q); test: KINOMEscan; details: read-out: Percent Control
Protocol: (§1) The kinase engagement assay (KINOMEscan®) was performed by DiscoverX assessing binding abilities toward a set of kinases.

[2] = target: PRKCE (Homo sapiens, UniProt Q02156); test: KINOMEscan; details: read-out: Percent Control
Protocol: as §1

[3] = target: ERBB3 (Homo sapiens, UniProt P21860); test: KINOMEscan; details: read-out: Percent Control
Protocol: as §1

[4] = target: PKMYT1 (Homo sapiens, UniProt Q99640); test: KINOMEscan; details: read-out: Percent Control
Protocol: as §1

[5] = target: MLK2 (Homo sapiens, UniProt Q02779); test: KINOMEscan; details: read-out: Percent Control
Protocol: as §1

[6] = target: ERBB4 (Homo sapiens, UniProt Q15303); test: KINOMEscan; details: read-out: Percent Control
Protocol: as §1

[7] = target: SGK (Homo sapiens, UniProt O00141); test: KINOMEscan; details: read-out: Percent Control
Chain of SGK (O00141 whole entry): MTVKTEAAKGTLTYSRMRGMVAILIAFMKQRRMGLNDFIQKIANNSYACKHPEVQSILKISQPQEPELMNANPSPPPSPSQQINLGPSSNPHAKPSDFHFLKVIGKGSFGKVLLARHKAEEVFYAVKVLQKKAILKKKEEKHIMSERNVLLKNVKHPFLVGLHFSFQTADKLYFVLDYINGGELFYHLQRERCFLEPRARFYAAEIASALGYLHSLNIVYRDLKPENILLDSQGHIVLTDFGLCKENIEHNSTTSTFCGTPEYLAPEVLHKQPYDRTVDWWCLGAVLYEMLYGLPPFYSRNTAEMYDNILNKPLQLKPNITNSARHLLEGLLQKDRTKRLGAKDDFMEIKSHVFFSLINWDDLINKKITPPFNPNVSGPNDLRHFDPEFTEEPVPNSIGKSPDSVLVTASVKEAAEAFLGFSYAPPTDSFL
Protocol: as §1

[8] = target: HIPK1 (Homo sapiens, UniProt Q86Z02); test: KINOMEscan; details: read-out: Percent Control
Protocol: as §1

[9] = target: BRSK1 (Homo sapiens, UniProt Q8TDC3); test: KINOMEscan; details: read-out: Percent Control
Chain of BRSK1 (Q8TDC3 whole entry): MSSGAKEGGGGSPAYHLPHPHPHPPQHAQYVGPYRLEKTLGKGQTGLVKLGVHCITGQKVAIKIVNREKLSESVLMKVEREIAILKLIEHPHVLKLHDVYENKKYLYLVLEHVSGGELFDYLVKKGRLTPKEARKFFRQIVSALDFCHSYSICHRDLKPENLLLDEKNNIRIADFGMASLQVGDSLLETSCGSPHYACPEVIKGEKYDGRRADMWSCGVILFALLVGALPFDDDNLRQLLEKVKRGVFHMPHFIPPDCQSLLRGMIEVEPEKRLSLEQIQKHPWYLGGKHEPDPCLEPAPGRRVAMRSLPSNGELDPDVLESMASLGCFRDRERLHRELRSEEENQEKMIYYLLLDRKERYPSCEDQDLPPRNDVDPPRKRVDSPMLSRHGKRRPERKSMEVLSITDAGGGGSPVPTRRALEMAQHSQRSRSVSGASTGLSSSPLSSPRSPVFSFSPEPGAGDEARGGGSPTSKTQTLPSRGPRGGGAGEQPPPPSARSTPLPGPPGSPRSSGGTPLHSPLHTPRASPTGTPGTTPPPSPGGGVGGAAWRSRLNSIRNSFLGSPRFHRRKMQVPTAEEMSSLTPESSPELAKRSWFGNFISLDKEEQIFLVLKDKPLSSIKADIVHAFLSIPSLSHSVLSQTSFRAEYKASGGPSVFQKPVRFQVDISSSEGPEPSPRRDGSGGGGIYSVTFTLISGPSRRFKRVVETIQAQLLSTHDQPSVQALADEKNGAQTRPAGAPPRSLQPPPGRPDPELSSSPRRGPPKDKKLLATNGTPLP
Protocol: as §1

[10] = target: GRK2 (Homo sapiens, UniProt P25098); test: KINOMEscan; details: read-out: Percent Control
Protocol: as §1

[11] = target: ROS1 (Homo sapiens, UniProt P08922); test: KINOMEscan; details: read-out: Percent Control
Protocol: as §1

[12] = target: PAK1 (Homo sapiens, UniProt Q13153); test: KINOMEscan; details: read-out: Percent Control
Protocol: as §1

[13] = target: EPHA1 (Homo sapiens, UniProt P21709); test: KINOMEscan; details: read-out: Percent Control
Protocol: as §1

[14] = target: EPHA5 (Homo sapiens, UniProt P54756); test: KINOMEscan; details: read-out: Percent Control
Chain of EPHA5 (P54756 25-1037): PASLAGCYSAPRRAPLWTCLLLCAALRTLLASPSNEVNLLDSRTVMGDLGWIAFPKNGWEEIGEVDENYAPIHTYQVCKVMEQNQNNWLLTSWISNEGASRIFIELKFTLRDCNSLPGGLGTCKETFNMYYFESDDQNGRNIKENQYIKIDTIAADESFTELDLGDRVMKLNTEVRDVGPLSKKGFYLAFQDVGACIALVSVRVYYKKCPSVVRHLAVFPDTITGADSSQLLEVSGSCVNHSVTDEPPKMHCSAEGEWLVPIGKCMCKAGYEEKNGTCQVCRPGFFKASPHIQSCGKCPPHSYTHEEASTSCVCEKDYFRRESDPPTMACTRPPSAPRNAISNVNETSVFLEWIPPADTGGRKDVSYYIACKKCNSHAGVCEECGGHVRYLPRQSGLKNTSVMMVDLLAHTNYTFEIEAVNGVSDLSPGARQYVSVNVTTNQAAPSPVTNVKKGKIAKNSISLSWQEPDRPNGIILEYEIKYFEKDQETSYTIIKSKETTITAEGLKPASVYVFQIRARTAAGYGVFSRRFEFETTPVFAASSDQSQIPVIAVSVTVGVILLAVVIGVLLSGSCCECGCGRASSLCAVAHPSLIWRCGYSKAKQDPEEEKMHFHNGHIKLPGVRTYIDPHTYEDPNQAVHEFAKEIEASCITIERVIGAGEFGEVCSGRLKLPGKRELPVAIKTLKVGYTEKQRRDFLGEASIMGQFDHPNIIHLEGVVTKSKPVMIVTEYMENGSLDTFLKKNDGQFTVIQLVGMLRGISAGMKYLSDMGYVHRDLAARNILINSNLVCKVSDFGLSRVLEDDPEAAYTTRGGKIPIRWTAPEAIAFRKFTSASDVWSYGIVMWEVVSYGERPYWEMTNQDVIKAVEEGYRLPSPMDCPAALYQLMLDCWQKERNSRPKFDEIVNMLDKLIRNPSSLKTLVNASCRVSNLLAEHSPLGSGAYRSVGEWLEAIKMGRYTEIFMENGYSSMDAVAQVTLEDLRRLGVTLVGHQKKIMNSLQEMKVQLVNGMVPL
Protocol: as §1

[15] = target: NIK (Homo sapiens, UniProt Q99558); test: KINOMEscan; details: read-out: Percent Control
Chain of NIK (Q99558 whole entry): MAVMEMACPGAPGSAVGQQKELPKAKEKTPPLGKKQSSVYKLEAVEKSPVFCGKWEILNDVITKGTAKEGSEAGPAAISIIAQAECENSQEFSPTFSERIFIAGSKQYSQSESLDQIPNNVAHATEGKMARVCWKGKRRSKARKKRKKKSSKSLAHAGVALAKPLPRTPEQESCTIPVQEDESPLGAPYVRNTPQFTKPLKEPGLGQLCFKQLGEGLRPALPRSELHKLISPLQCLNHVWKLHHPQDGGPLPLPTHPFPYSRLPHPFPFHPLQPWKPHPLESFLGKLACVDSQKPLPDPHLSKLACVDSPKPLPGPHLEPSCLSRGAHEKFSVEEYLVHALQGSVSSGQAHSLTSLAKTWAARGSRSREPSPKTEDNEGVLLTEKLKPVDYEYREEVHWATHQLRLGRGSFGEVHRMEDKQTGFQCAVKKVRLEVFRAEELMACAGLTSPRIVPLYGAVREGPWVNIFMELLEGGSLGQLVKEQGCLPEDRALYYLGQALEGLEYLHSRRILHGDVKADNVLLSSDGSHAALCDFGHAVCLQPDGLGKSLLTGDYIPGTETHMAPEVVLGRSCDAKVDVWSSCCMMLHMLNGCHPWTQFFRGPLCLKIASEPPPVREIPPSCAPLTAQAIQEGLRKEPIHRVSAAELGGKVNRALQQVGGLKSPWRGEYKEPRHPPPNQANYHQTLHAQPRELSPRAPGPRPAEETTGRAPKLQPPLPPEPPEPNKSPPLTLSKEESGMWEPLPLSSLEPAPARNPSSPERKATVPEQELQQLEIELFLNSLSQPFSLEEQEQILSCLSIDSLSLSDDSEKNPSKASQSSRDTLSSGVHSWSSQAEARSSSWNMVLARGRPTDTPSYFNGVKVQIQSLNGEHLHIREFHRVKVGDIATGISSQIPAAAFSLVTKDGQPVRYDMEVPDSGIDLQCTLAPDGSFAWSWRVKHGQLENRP
Protocol: as §1

[16] = target: TRKB (Homo sapiens, UniProt Q16620); test: KINOMEscan; details: read-out: Percent Control
Protocol: as §1

[17] = target: p38-alpha (Homo sapiens, UniProt Q16539); test: KINOMEscan; details: read-out: Percent Control
Chain of p38-alpha (Q16539 whole entry): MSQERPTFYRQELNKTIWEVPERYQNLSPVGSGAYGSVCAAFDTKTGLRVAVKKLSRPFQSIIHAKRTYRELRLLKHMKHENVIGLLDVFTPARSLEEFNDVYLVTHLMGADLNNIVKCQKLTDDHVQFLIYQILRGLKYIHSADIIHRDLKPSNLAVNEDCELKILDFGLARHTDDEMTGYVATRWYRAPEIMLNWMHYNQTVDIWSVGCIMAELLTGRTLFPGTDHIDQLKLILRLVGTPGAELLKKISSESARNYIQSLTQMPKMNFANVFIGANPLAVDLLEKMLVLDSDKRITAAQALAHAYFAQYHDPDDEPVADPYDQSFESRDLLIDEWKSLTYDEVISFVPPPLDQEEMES
Protocol: as §1

[18] = target: WEE2 (Homo sapiens, UniProt P0C1S8); test: KINOMEscan; details: read-out: Percent Control
Protocol: as §1

[19] = target: HASPIN (Homo sapiens, UniProt Q8TF76); test: KINOMEscan; details: read-out: Percent Control
Protocol: as §1

[20] = target: ABL1(T315I)-nonphosphorylated (Homo sapiens, UniProt P00519, T315I); test: KINOMEscan; details: read-out: Percent Control
Protocol: as §1

[21] = target: PAK2 (Homo sapiens, UniProt Q13177); test: Z'-LYTE FRET kinase inhibition assay; type: biochemical; set-up: PAK2 (full length); purchased Invitrogen PV4565
Chain of PAK2 (Q13177 whole entry, the tested form may be a part): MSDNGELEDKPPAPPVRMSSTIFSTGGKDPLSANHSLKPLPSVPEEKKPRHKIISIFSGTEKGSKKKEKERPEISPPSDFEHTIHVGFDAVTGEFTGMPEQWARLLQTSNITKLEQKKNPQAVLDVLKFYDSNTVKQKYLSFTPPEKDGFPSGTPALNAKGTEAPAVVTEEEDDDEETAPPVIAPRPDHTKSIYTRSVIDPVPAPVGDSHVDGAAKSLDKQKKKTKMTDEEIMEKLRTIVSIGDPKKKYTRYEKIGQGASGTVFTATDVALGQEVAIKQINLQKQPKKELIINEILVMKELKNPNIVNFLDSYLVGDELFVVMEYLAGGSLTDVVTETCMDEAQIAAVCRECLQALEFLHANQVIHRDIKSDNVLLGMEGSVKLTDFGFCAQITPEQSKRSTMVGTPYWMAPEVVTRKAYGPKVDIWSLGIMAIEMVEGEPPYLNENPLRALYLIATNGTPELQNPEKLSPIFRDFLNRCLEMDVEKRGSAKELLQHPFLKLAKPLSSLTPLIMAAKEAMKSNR
Protocol: The activity/inhibition of human recombinant PAK1 (kinase domain) or PAK2 (full length) was determined by measuring the phosphorylation of a FRET peptide substrate (Ser/Thr19) labeled with Coumarin and Fluorescein using Z′-LYTE™ assay (Invitrogen). The 10 μL assay mixtures contained 50 mM HEPES (pH 7.5), 0.01% Brij-35, 10 mM MgCl2, 1 mM EGTA, 2 μM FRET peptide substrate, and PAK enzyme (20 pM PAK1; 50 pM PAK2). Incubations were carried out at 22° C. in black polypropylene 384-well plates (Corning Costar). Prior to the assay, enzyme, FRET peptide substrate and serially diluted test compounds were preincubated together in assay buffer (7.5 μL) for 10 minutes, and the assay was initiated by the addition of 2.5 μL assay buffer containing 4×ATP (160 μM PAK1; 480 μM PAK2). Following the 60-minute incubation, the assay mixtures were quenched by the addition of 5 μL of Z′-LYTE™ development reagent, and 1 hour later the emissions of Coumarin (445 nm) and Fluorescein (520 nm) were determined after excitation at 400 nm using an Envision plate reader (Perkin Elmer). […].

[22] = target: TNIK (Homo sapiens, UniProt Q9UKE5); test: KINOMEscan; details: read-out: Percent Control
Protocol: as §1

[23] = target: MAST1 (Homo sapiens, UniProt Q9Y2H9); test: KINOMEscan; details: read-out: Percent Control
Protocol: as §1

[24] = target: PCTK2 (Homo sapiens, UniProt Q00537); test: KINOMEscan; details: read-out: Percent Control
Protocol: as §1

[25] = target: PRKD3 (Homo sapiens, UniProt O94806); test: KINOMEscan; details: read-out: Percent Control
Protocol: as §1

[26] = target: SgK110 (Homo sapiens, UniProt P0C264); test: KINOMEscan; details: read-out: Percent Control
Protocol: as §1

Chain of PRKCE (Q02156 whole entry): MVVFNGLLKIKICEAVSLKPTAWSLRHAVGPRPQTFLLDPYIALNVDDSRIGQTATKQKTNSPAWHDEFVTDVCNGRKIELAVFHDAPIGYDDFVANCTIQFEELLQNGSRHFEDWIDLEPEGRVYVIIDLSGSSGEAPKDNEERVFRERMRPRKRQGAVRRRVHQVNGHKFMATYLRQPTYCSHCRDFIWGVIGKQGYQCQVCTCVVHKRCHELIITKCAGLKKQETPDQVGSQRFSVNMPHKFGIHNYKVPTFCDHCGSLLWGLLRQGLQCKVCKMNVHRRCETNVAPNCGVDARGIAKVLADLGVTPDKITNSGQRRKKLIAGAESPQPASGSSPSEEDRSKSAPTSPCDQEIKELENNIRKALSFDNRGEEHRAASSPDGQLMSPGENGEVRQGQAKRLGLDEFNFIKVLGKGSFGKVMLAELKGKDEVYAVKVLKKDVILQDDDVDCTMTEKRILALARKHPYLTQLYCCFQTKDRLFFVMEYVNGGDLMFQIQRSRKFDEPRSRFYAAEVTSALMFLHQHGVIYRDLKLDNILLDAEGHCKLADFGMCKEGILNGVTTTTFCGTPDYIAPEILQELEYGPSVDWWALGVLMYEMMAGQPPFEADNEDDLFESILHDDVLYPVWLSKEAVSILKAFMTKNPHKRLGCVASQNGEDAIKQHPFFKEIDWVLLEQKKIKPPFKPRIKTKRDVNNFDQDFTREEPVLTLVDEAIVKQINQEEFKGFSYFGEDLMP

O=C1CCC(N2C(=O)c3cccc(NCCCCCCCCNC(=O)N4CC[C@H](NC5=Nc6cc(F)ccc6N(CC(F)F)c6ccc(Cl)cc65)C4)c3C2=O)C(=O)N1 (stereo partly drawn) [BJG-05-039, (3S)-3-((2-Chloro-5-(2,2-difluoroethyl)-8-fluoro-5H-dibenzo[b,e][1,4]diazepin-11-yl)amino)-N-(8-((2-(2,6-dioxopiperidin-3-yl)-1,3-dioxoisoindolin-4-yl)amino)octyl)pyrrolidine-1-carboxamide]
remaining binding at 10 µM [1]: 100%
remaining binding at 10 µM [2]: 100%
remaining binding at 10 µM [3]: 59%
remaining binding at 10 µM [4]: 54%
remaining binding at 10 µM [5]: 97%
remaining binding at 10 µM [6]: 97%
remaining binding at 10 µM [7]: 100%
remaining binding at 10 µM [8]: 100%
remaining binding at 10 µM [9]: 51%
remaining binding at 10 µM [10]: 77%
remaining binding at 10 µM [11]: 94%
remaining binding at 10 µM [12]: 20%
remaining binding at 10 µM [13]: 98%
remaining binding at 10 µM [14]: 99%
remaining binding at 10 µM [15]: 76%
remaining binding at 10 µM [16]: 67%
remaining binding at 10 µM [17]: 60%
remaining binding at 10 µM [18]: 78%
remaining binding at 10 µM [19]: 90%
remaining binding at 10 µM [20]: 86%
IC50 [21]: > 10 µM
remaining binding at 10 µM [22]: 48%
remaining binding at 10 µM [23]: 71%
remaining binding at 10 µM [24]: 58%
remaining binding at 10 µM [25]: 37%
remaining binding at 10 µM [26]: 83%
